Test results from US11300570B2, “Therapeutic and diagnostic methods for cancer” (Genentech, Inc., priority 2016, dated 2022).

Tests used:
[1] = tested on: locally advanced or metastatic NSCLC (PD-L1-unselected patients); assay: POPLAR Phase II randomized trial, atezolizumab vs docetaxel, in 2L+ PD-L1-unselected NSCLC, efficacy by tTMB; assay type: in vivo, human
Source text: (§1) Patients were eligible for enrollment in the POPLAR study if they had locally advanced or metastatic (e.g., stage IIIB, stage IV, or recurrent) NSCLC; disease progression during or following treatment with a prior platinum-containing regimen for locally advanced, unresectable/inoperable, or metastatic NSCLC, or disease recurrence within 6 months of treatment with a platinum-based adjuvant/neoadjuvant regimen; measurable disease, as defined by RECIST v1.1; and an ECOG performance status of 0 or 1. Participants were randomized to receive either atezolizumab at a dose of 1200 mg intravenously every three weeks or docetaxel 75 mg per meter square (mg/m^2) intravenously every three weeks. Treatment with atezolizumab could be continued as long as participants were experiencing clinical benefit, i.e., in the absence of unacceptable toxicity or symptomatic deterioration attributed to disease progression. Pre-treatment tumor samples from patients in the Phase III OAK trial (Clinical Trial ID No.: NCT02008227) were also evaluated for tTMB. Patients were eligible for enrollment in the OAK study if they had locally advanced or metastatic (e.g., stage IIIB, stage IV, or recurrent) NSCLC; disease progression during or following treatment with a prior platinum-containing regimen for locally advanced, unresectable/inoperable, or metastatic NSCLC, or disease recurrence within 6 months of treatment with a platinum-based adjuvant/neoadjuvant regimen; measurable disease, as defined by RECIST v1.1; and an ECOG performance status of 0 or 1. Participants were randomized to receive either atezolizumab at a dose of 1200 mg intravenously every three weeks or docetaxel 75 mg per square meter (mg/m^2) intravenously every three weeks. Treatment with atezolizumab could be continued as long as participants were experiencing clinical benefit, i.e., in the absence of unacceptable toxicity or symptomatic deterioration attributed to disease progression.
Data from the single-arm, PD-L1-selected trials BIRCH and FIR were combined and analyzed to examine the association between tTMB and clinical outcomes among PD-L1-selected patients. Data from the randomized, PD-L1-unselected trial, POPLAR, were analyzed separately and treatment effects between the atezolizumab- and docetaxel-treatment arms were compared.
To identify somatic mutations, tumor samples (e.g., archival tumor samples) were processed as described in Frampton et al. Nat. Biotechnol. 31:1023-31, 2013. Sequencing libraries were constructed to sequence and analyze samples. In addition to standard mutation processing, a mutation load estimation algorithm was applied that, based on the number of somatic mutations and/or rearrangements detected in Table 1 or Table 2, respectively, extrapolates to the exome or the genome as a whole. For purposes of mutation load estimation, all coding short variant alterations, base substitutions, and indels detected in the genes listed in Table 1 and Table 2 were counted. Further, all coding alterations (base substitutions and indels), including synonymous alterations, with the exception of known oncogenic driver mutations, in the genes listed in Table 1 and Table 2 were counted. However, numerous classes of detected alterations were not counted: non-coding alterations; alterations with known (occurring as known somatic alterations in the COSMIC database (Forbes et al. (2014) Nucl. Acids Res. 43:D805-11) and likely (truncations in tumor suppressor genes) functional status; known germline alterations in the dbSNP database (Sherry et al. (2001) Nucleic Acids Res. 29(1):308-11); germline alterations occurring with two or more counts in the ExAC database (Exome Aggregation Consortium (ExAC), Cambridge, Mass.); alterations that are predicted to be germline in the specimen being assessed; and alterations that are predicted to be germline in a cohort of >60,000 clinical specimens. […]

[2] = tested on: locally advanced or metastatic NSCLC; assay: OAK Phase III randomized trial, atezolizumab vs docetaxel, in 2L+ NSCLC, efficacy by tTMB; assay type: in vivo, human; conditions: 2L+ OAK
Source text: as §1
To identify somatic mutations, tumor samples (e.g., archival tumor samples) were processed as described in Frampton et al. Nat. Biotechnol. 31:1023-31, 2013. Sequencing libraries were constructed to sequence and analyze samples. In addition to standard mutation processing, a mutation load estimation algorithm was applied that, based on the number of somatic mutations and/or rearrangements detected in Table 1 or Table 2, respectively, extrapolates to the exome or the genome as a whole. For purposes of mutation load estimation, all coding short variant alterations, base substitutions, and indels detected in the genes listed in Table 1 and Table 2 were counted. Further, all coding alterations (base substitutions and indels), including synonymous alterations, with the exception of known oncogenic driver mutations, in the genes listed in Table 1 and Table 2 were counted. However, numerous classes of detected alterations were not counted: non-coding alterations; alterations with known (occurring as known somatic alterations in the COSMIC database (Forbes et al. (2014) Nucl. Acids Res. 43:D805-11) and likely (truncations in tumor suppressor genes) functional status; known germline alterations in the dbSNP database (Sherry et al. (2001) Nucleic Acids Res. 29(1):308-11); germline alterations occurring with two or more counts in the ExAC database (Exome Aggregation Consortium (ExAC), Cambridge, Mass.); alterations that are predicted to be germline in the specimen being assessed; and alterations that are predicted to be germline in a cohort of >60,000 clinical specimens. Finally, to calculate the mutation load per megabase, the total number of mutations counted was divided by the coding region target territory of the test, which was 1.110 megabases (Mb) for the current version of the test. The average median coverage value for all samples was 490.
The BEP was defined as patients with at least one tTMB measurement from a baseline tumor sample. […]

[3] = BEP (evaluable for TMB) (n = 174 atezolizumab, 186 docetaxel)
[4] = tTMB score <9 mut/Mb (n = 91 atezolizumab, 87 docetaxel)
[5] = tTMB score <16 mut/Mb (n = 135 atezolizumab, 136 docetaxel)
[6] = tTMB score ≥9 mut/Mb (n = 83 atezolizumab, 99 docetaxel)
[7] = tTMB score ≥16 mut/Mb (n = 39 atezolizumab, 50 docetaxel)

SMILES: CC(=O)O[C@@]12CO[C@@H]1C[C@H](O)[C@@]1(C)C(=O)[C@H](O)C3=C(C)[C@@H](OC(=O)[C@H](O)[C@@H](NC(=O)OC(C)(C)C)c4ccccc4)C[C@@](O)([C@@H](OC(=O)c4ccccc4)[C@H]21)C3(C)C [docetaxel]
- ORR (confirmed per RECIST v1.1) with increasing tTMB ([1]; POPLAR, per treatment arm): did not experience improvement in ORR
- ORR ([1]; POPLAR, BEP (n = 54 atezolizumab vs 38 docetaxel)): 15%
- ORR ([1]; POPLAR, ITT (n = 144 atezolizumab vs 143 docetaxel)): 15% vs 15%
- ORR ([1]; POPLAR, tTMB quantile ≥25%): 10%
- ORR ([1]; POPLAR, tTMB quantile ≥50% (median)): 4%
- ORR ([1]; POPLAR, tTMB quantile ≥75%): 8%
- association of tissue TMB with efficacy ([1]; docetaxel arm, 2L+ NSCLC, randomized setting): not associated with the efficacy
- Median OS [2, 3]: 9.8 months
- Median PFS [2, 3]: 3.81 months
- Median OS ([2]; ITT (n = 425 per arm)): 9.6 months
- Median PFS ([2]; ITT (n = 425 per arm)): 4.0 months
- Median OS [2, 4]: 10.8 months
- Median PFS [2, 4]: 4.1 months
- Median OS [2, 5]: 10.1 months
- Median PFS [2, 5]: 4.0 months
- Median OS [2, 6]: 9.7 months
- Median PFS [2, 6]: 3.6 months
- Median OS [2, 7]: 9.7 months
- Median PFS [2, 7]: 3.5 months
